Patent US20230148005A1, “MACROCYCLIC COMPOUNDS AND USES THEREOF” (THESEUS PHARMACEUTICALS, INC., priority 2020, published 2023)

What was measured:
EGFR^L858R = EGFR^L858R (Homo sapiens, UniProt P00533, L858R); assay: in vitro kinase assay (HTRF KinEASE-TK kit), L; format: biochemical; conditions: kinase inhibition
Excerpt: (§1) Assays using an in vitro kinase assay kit (HTRF KinEASE-TK kit) can be used to study the inhibitory activity of compounds described herein with respect to EGFR mutants such as EGFR^L858R, EGFR^L58R/T790M, and EGFR^L858R/T790M/C^797S.

Ba/F3 EGFR-Del19/T790M = Ba/F3 EGFR-Del19/T790M (Homo sapiens, UniProt P00533, T790M, cells depend on it, form not given); assay: Ba/F3 viability assay (CellTiter-Glo), DT; format: cell-based; conditions: anti-proliferation, read-out: BaF3 DT IC50
How it was run: (§2)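 Read-out: viability signal, used as the measure of proliferation inhibition by test compounds.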

EGFR^L58R/T790M = EGFR^L58R/T790M (Homo sapiens, UniProt P00533, L858R/T790M); assay: in vitro kinase assay (HTRF KinEASE-TK kit), LT; format: biochemical; conditions: kinase inhibition
Sequence of EGFR^L58R/T790M (P00533 25-1210 T790M/L858R): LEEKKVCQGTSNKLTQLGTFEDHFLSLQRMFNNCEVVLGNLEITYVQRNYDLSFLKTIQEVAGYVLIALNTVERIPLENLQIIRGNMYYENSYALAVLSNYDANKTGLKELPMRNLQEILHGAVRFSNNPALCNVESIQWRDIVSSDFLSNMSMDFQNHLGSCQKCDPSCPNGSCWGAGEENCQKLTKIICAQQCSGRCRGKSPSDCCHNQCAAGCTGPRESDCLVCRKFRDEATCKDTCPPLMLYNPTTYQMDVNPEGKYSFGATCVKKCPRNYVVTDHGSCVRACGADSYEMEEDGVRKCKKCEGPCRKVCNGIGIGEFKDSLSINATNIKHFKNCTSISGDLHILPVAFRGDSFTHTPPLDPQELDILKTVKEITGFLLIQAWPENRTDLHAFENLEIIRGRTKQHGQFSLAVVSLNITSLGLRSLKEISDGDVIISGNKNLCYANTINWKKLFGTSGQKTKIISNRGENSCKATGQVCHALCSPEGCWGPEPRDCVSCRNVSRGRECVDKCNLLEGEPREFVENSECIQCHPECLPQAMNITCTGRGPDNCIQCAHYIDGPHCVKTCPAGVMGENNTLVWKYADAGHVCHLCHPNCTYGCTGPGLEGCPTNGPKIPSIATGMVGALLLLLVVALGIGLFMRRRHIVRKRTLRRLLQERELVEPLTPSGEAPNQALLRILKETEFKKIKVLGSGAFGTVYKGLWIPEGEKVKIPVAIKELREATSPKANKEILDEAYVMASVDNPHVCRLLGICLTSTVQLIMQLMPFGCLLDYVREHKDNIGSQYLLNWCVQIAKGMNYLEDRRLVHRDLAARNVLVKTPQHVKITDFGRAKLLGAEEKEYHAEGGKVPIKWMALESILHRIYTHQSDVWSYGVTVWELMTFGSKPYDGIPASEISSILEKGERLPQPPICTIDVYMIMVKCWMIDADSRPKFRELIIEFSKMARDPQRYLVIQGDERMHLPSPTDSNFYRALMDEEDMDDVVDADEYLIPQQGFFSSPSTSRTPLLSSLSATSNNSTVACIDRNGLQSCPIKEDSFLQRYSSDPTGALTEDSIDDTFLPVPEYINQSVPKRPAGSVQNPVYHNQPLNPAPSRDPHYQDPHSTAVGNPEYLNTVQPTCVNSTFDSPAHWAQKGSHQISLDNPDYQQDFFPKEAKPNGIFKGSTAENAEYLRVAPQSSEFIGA
Excerpt: as §1

Ba/F3 EGFR-Del19/C797S = Ba/F3 EGFR-Del19/C797S (Homo sapiens, UniProt P00533, C797S, cells depend on it, form not given); assay: Ba/F3 viability assay (CellTiter-Glo), DC; format: cell-based; conditions: anti-proliferation, read-out: BaF3 DC IC50
How it was run: as §2

EGFR^L858R/T790M/C^797S = EGFR^L858R/T790M/C^797S (Homo sapiens, UniProt P00533, C797S/L858R/T790M); assay: in vitro kinase assay (HTRF KinEASE-TK kit), LTC; format: biochemical; conditions: kinase inhibition
Sequence of EGFR^L858R/T790M/C^797S (P00533 25-1210 T790M/C797S/L858R): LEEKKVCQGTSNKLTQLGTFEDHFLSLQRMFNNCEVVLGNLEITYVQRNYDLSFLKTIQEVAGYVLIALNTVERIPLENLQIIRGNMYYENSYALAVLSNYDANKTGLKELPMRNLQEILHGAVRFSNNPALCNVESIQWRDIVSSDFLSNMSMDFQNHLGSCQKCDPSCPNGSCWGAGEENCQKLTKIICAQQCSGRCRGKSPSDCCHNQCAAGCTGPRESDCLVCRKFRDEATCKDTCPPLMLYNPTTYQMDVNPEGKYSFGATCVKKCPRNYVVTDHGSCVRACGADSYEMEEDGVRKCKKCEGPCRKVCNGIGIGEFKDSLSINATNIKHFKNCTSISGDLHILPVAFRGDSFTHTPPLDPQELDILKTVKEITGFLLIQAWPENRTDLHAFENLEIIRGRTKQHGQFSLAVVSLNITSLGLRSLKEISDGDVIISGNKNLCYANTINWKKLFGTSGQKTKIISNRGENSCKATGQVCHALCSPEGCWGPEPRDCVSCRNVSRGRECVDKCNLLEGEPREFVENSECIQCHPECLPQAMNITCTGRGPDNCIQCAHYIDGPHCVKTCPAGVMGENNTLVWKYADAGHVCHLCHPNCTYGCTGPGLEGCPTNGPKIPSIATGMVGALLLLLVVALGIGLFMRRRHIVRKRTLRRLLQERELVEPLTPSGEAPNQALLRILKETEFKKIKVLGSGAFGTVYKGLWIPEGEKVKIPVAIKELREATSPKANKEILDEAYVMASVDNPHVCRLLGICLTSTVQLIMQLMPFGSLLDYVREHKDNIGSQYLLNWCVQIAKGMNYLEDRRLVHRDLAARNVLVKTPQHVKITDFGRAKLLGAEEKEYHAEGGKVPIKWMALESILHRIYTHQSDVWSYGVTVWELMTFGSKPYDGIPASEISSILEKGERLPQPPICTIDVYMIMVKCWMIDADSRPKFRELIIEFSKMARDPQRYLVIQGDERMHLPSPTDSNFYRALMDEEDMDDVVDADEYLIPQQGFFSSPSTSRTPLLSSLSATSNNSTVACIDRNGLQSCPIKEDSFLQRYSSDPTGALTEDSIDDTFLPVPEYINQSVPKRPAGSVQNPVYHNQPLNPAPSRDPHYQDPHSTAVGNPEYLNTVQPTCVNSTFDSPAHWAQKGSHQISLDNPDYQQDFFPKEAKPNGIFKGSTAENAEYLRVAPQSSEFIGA
Excerpt: as §1

Ba/F3 Parental = assay: Ba/F3 viability assay (CellTiter-Glo), parental; format: cell-based; conditions: Mus musculus, BaF3, anti-proliferation
How it was run: as §2

[1] = biological target: Ba/F3 EGFR-Del19/T790M/C797S (Homo sapiens, UniProt P00533, T790M/C797S, cells depend on it, form not given); assay: Ba/F3 viability assay (CellTiter-Glo), DTC; format: cell-based; conditions: anti-proliferation, read-out: BaF3 DTC IC50
Sequence of Ba/F3 EGFR-Del19/T790M/C797S (P00533 with tags, fused parts or gaps DEL746-750/T790M/C797S, form open): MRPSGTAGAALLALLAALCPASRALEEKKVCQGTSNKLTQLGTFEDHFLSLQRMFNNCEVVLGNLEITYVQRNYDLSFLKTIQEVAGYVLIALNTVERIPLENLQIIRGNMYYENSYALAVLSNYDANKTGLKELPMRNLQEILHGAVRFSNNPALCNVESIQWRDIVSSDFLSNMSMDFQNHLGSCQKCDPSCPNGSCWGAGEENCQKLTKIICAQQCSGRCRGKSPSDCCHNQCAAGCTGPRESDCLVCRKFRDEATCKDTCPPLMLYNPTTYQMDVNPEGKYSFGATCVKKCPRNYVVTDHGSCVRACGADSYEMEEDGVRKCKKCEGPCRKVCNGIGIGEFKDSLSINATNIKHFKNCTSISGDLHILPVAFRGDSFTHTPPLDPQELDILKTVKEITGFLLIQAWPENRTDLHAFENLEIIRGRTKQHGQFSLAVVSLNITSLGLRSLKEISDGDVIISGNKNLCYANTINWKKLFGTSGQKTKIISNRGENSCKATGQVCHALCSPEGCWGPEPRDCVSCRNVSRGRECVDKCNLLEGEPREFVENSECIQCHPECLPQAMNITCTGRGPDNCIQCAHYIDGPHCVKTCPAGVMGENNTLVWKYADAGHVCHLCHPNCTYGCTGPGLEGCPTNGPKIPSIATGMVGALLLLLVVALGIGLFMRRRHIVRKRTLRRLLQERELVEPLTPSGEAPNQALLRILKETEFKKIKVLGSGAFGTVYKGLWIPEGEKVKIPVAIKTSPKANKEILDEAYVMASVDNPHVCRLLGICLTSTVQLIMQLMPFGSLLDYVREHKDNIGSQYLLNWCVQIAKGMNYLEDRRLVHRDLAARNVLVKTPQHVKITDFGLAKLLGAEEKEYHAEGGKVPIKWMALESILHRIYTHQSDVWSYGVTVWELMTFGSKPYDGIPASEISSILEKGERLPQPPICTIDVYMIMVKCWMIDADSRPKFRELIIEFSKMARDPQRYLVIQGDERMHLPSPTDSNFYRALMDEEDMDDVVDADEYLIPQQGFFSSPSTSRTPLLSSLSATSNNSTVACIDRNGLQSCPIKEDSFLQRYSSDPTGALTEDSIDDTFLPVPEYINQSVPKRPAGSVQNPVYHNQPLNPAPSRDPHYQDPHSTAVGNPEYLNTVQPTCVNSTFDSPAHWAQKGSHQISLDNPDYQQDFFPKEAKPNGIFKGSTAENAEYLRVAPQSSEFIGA
How it was run: as §2

Sequence of EGFR^L858R (P00533 25-1210 L858R): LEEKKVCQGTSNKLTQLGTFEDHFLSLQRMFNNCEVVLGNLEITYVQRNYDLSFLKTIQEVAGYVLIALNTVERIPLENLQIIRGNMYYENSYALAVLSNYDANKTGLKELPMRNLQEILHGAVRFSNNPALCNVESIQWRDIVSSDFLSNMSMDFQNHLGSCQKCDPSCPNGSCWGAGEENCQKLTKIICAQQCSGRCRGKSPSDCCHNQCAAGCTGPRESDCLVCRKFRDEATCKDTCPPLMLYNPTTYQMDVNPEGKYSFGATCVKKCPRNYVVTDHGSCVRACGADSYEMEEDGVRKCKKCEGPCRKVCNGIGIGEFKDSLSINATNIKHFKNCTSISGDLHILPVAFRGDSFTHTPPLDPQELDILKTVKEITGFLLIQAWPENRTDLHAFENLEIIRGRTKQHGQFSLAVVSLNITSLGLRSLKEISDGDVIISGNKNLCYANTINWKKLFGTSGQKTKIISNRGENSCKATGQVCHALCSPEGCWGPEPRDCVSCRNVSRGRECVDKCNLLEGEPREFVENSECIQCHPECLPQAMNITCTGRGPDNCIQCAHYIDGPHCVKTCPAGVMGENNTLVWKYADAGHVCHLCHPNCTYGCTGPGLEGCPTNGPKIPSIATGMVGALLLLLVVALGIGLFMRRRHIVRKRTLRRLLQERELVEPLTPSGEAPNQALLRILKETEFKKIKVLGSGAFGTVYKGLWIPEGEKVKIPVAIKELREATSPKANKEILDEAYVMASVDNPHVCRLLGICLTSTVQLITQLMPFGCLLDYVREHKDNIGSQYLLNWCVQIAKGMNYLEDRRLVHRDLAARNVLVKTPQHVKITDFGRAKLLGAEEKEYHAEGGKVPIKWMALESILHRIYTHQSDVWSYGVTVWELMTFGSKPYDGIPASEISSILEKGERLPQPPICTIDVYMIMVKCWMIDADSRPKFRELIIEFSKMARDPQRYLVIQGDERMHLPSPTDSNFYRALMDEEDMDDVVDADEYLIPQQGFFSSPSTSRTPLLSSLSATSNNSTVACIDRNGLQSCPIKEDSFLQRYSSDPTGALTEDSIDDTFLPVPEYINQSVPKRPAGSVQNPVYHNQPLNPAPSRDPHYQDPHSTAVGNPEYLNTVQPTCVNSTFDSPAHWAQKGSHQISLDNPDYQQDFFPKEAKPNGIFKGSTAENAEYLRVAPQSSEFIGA

SMILES	IC50 (EGFR^L858R) [nM]	IC50 (EGFR^L58R/T790M) [nM]	IC50 (EGFR^L858R/T790M/C^797S) [nM]	GI50 (Ba/F3 EGFR-Del19/T790M) [nM]	GI50 (Ba/F3 EGFR-Del19/C797S) [nM]	IC50 (Ba/F3 Parental) [nM]	GI50 [1] [nM]
CCCN1CCN(Cc2ccc(-c3nn4c5cc(ncc35)Nc3ccnc(n3)-c3cnn(C)c3OCC[C@@H]4C)n2C)CC1 [(135)]	< 10	< 10	< 10	< 10	< 10	100 to 1000	< 10
COCCN(C)Cc1ccc(-c2nn3c4cc(ncc24)Nc2ccnc(n2)-c2cnn(C)c2OCC[C@@H]3C)n1C [(136)]	< 10	< 10	< 10	< 10	< 10	100 to 1000	< 10
CCN(CC)Cc1ccc(-c2nn3c4cc(ncc24)Nc2ccnc(n2)-c2cnn(C)c2OCC[C@@H]3C)n1C [(137)]	< 10	< 10	< 10	< 10	< 10	100 to 1000	< 10
CCCN(C)Cc1ccc(-c2nn3c4cc(ncc24)Nc2ccnc(n2)-c2cnn(C)c2OCC[C@@H]3C)n1C [(138)]	< 10	< 10	< 10	< 10	< 10	100 to 1000	< 10
CCN(CC)C1CCN(c2cc(F)cc(-c3nn4c5cc(ncc35)Nc3ccnc(n3)-c3cnn(C)c3OCC[C@@H]4C)c2)CC1 [(141)]	< 10	< 10	< 10	10 to 100	10 to 100	100 to 1000	10 to 100
C[C@H]1CCOc2c(cnn2C)-c2nccc(n2)Nc2cc3c(cn2)c(-c2cc(CN4CCN(C)CC4)n(C)c2)nn31 [(144)]	< 10	< 10	< 10	< 10	< 10	10 to 100	< 10
CCn1cc(-c2nn3c4cc(ncc24)Nc2ccnc(n2)-c2cnn(C)c2OCC[C@@H]3C)cc1CN1CCN(C)CC1 [(146)]	< 10	< 10	< 10	< 10	< 10	100 to 1000	< 10
C[C@H]1CCOc2c(cnn2C)-c2nccc(n2)Nc2cc3c(cn2)c(-c2cc(CN4CCN(C5CC5)CC4)n(C)c2)nn31 [(147)]	< 10	< 10	< 10	< 10	< 10	100 to 1000	< 10

Second part, led by results:

IC50 (EGFR^L858R) [nM]	IC50 (EGFR^L58R/T790M) [nM]	IC50 (EGFR^L858R/T790M/C^797S) [nM]	SMILES	GI50 (Ba/F3 EGFR-Del19/T790M) [nM]	GI50 (Ba/F3 EGFR-Del19/C797S) [nM]	IC50 (Ba/F3 Parental) [nM]	GI50 [1] [nM]
< 10	< 10	< 10	C[C@H]1CCOc2c(cnn2C)-c2nccc(n2)Nc2cc3c(cn2)c(-c2cc(CN4CCOCC4)n(C)c2)nn31 [(139)]	< 10	< 10	100 to 1000	< 10
< 10	< 10	< 10	C[C@H]1CCOc2c(cnn2C)-c2nccc(n2)Nc2cc3c(cn2)c(-c2ccc(CN4CCCC4)n2C)nn31 [(140)]	< 10	< 10	100 to 1000	< 10
< 10	< 10	< 10	CCCN1CCN(Cc2cnc(-c3nn4c5cc(ncc35)Nc3ccnc(n3)-c3cnn(C)c3OCC[C@@H]4C)s2)CC1 [(142)]	10 to 100	10 to 100	100 to 1000	< 10
10 to 100	< 10	< 10	C[C@H]1CCOc2c(cnn2C)-c2nccc(n2)Nc2cc3c(cn2)c(-c2ncc(CN4CCOCC4)s2)nn31 [(143)]	10 to 100	10 to 100	≥ 1000	10 to 100
< 10	< 10	< 10	C[C@H]1CCOc2c(cnn2C)-c2nccc(n2)Nc2cc3c(cn2)c(-c2cccc(OCCN4CCOCC4)c2)nn31 [(145), (16S)-11,16-dimethyl-19-[3-(2-morpholinoethoxy)phenyl]-13-oxa-2,6,10,11,17,18,22,25-octazapentacyclo[15.5.2.1^3,7.0^8,12.0^20,24]pentacosa-1(22),3,5,7(25),8(12),9,18,20,23-nonaene]	< 10	10 to 100	100 to 1000	< 10
